Laboratory results: US7888464B2, “Hepatitis C virus inhibitors” (Bristol-Myers Squibb Company, priority 2006, dated 2011)

What was measured:
[1] = system: HCV replicon (Renilla luciferase reporter) in HUH-7 cells; experiment: HCV replicon luciferase reporter assay; format: cell-based; conditions: Huh-7, read-out: EC50 in the replicon Luciferase assay
Text: An HCV replicon whole cell system was established as described by Lohmann V, Korner F, Koch J, Herian U, Theilmann L, Bartenschlager R., Science 285(5424): 110-3 (1999). This system enabled us to evaluate the effects of our HCV Protease compounds on HCV RNA replication. Briefly, using the HCV strain 1b sequence described in the Lohmann paper (Assession number: AJ238799), an HCV cDNA was synthesized by Operon Technologies, Inc. (Alameda, Calif.), and the full-length replicon was then assembled in plasmid pGem9zf(+) (Promega, Madison, Wis.) using standard molecular biology techniques. The replicon consists of (i) the HCV 5′ UTR fused to the first 12 amino acids of the capsid protein, (ii) the neomycin phosphotransferase gene (neo), (iii) the IRES from encephalomyocarditis virus (EMCV), and (iv) HCV NS3 to NS5B genes and the HCV 3′ UTR. […]
As a secondary assay, EC50 determinations from the replicon FRET assay were confirmed in a replicon luciferase reporter assay. […] Following 4 days in a 37° C./5% CO2 incubator, cells were analyzed for Renilla Luciferase activity using the Promega Dual-Glo Luciferase Assay System. […] Plates were read on a Packard TopCount NXT using a luminescence program.
The percentage inhibition was calculated using the formula below: […]
The values were graphed and analyzed using XLfit to obtain the EC50 value.

[2] = target: T1, porcine pancreatic elastase (PPE) (Sus scrofa, UniProt P00772); experiment: Specificity assay, pancreatic elastase; format: biochemical; conditions: read-out: PPE activity in the specificity assays
T1 construct: purchased Sigma, EMDbiosciences
Protocol: (§1) The specificities of compounds of the present disclosure were determined against a variety of serine proteases: human neutrophil elastase (HNE), porcine pancreatic elastase (PPE) and human pancreatic chymotrypsin and one cysteine protease: human liver cathepsin B. In all cases a 96-well plate format protocol using a fluorometric Amino-Methyl-Coumarin (AMC) substrate specific for each enzyme was used as described previously (PCT Patent Application No. WO 00/09543) with some modifications to the serine protease assays. All enzymes were purchased from Sigma, EMDbiosciences while the substrates were from Bachem, Sigma and EMDbiosciences.
(§2) Compound concentrations varied from 100 to 0.4 μM depending on their potency. The enzyme assays were each initiated by addition of substrate to enzyme-inhibitor pre-incubated for 10 min at room temperature and hydrolysis to 15% conversion as measured on cytofluor.
50 mM Tris-HCl, pH 8.0, 50 mM NaCl, 0.1 mM EDTA, 3% DMSO, 0.02% Tween-20, 5 μM succ-AAPV-AMC and 20 nM HNE or 8 nM PPE;
(§3) The percentage of inhibition was calculated using the formula: [1−((UVinh−UVblank)/(UVctl−UVblank))]×100
(§4) A non-linear curve fit was applied to the inhibition-concentration data, and the 50% effective concentration (IC50) was calculated by the use of Excel XLfit software.

[3] = system: human pancreatic chymotrypsin; experiment: Specificity assay, chymotrypsin; format: biochemical; conditions: read-out: Chymotrypsin activity in the specificity assays
Protocol: as §1, §2
50 mM Tris(hydroxymethyl)aminomethane hydrochloride (Tris-HCl) pH 8, 0.5 M Sodium Sulfate (Na2SO4), 50 mM NaCl, 0.1 mM EDTA, 3% DMSO, 0.01% Tween-20 with 5 μM LLVY-AMC and 1 nM Chymotrypsin.
as §3, §4

human liver cathepsin B = target: T2, human liver cathepsin B (Homo sapiens, UniProt P07858); experiment: Specificity assay, cathepsin B; format: biochemical; conditions: read-out: Cathepsin B activity in the specificity assays
T2 construct: purchased Sigma, EMDbiosciences; host or cells: human liver
Protocol: as §1, §2
100 mM NaOAC (Sodium Acetate) pH 5.5, 3% DMSO, 1 mM TCEP (Tris(2-carboxyethyl)phosphine hydrochloride), 5 nM Cathepsin B (enzyme stock activated in buffer containing 20 mM TCEP before use), and 2 μM Z-FR-AMC diluted in H2O.
as §3, §4

T1 sequence (P00772 27-266): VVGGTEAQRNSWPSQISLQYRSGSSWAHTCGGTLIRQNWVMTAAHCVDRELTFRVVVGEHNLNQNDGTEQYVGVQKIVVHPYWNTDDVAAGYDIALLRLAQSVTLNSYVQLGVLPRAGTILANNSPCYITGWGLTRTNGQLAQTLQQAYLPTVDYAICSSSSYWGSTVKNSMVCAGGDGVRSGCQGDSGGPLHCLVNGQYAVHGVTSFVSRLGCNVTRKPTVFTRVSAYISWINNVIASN

C=C[C@@H]1C[C@]1(NC(=O)[C@@H]1C[C@@](O)(c2ccc(-c3ccccc3)cc2)CN1C(=O)[C@@H](NC(=O)OC(C)(C)C)C(C)(C)C)C(=O)NS(=O)(=O)C1CC1 [Compound 3]
EC50 [1]: 0.0014 µM
IC50 [2]: > 100 µM
IC50 [3]: 75 µM
IC50 (human liver cathepsin B): > 100 µM
